In patent publication US12571764B2, “Receptor-based biosensors” (STATE OF ISRAEL, MINISTRY OF AGRICULTURE & RURAL …, priority 2020, dated 2026):
Each block holds one compound with its values, some of them ahead of it.

Experiments:
[1] = cited from earlier work
OR2 = OR2 (Anopheles gambiae, UniProt Q8WTE6); details: background, based on cell-based assays; cited from earlier work
Aedes aegypti Orco = biological target: T1, Aedes aegypti Orco (Aedes aegypti, UniProt Q178U6); assay: two-electrode voltage clamp of Xenopus oocytes expressing Orco; format: cell-based; details: for effect on VUAA1-activated Orco: oocytes expressing Aedes aegypti Orco, 2.10-4 M VUAA1 with equimolar concentration of antagonist
T1 construct: expressed in transfected cells; host or cells: Xenopus oocytes injected with capped Orco RNA from linearized pSP64DV
T1 sequence (Q178U6 1-478): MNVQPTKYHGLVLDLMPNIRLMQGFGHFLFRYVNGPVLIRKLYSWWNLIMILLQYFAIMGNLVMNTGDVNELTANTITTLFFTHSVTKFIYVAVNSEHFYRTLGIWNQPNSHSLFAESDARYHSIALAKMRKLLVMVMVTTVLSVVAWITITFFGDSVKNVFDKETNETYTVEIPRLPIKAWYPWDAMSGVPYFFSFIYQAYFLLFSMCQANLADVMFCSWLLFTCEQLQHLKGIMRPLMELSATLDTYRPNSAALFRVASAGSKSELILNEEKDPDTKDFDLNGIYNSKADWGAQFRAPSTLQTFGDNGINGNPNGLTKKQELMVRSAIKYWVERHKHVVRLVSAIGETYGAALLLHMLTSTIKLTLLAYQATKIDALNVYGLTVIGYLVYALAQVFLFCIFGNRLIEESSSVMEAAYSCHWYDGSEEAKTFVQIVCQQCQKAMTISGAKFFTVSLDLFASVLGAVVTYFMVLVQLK
Text: FIG. 4A-Chemical structures of tested compounds. FIG. 4B-Representative current traces of oocytes expressing Aedes aegypti Orco following exposure to 2.10-4 M VUAA1 alone or in combination with equimolar concentrations of the antagonists octadienal and carvacrol. FIG. 4C-Normalized responses of AaegOrco to VUAA1 alone or in combination with octadienal or carvacrol. Odorants effects were statistically significant (one-way ANOVA followed by Tukey's post-test; P<0.0001; mean responses+s.e.m.; VUAA1 alone, n=7; octadienal & carvacrol n=6).
(§1) Orco expression, electrophysiology and purification. Supply of Orco-rich membranes will be predicated on the functional validation carried out using the two-electrode voltage clamp of Xenopus oocytes expressing this receptor. Expression and recordation of the pharmacological activity of mosquito odorant receptor complexes (ORx-Orco) in Xenopus oocytes has been studies extensively. This technique to study the agonist activity of Orco agonists (e.g., VUAA1) and antagonists (e.g., octadienal and carvacrol) (as shown in FIG. 4A) or associated with ORx has been achieved. In some cases Orco rather than ORx was used in order to reduce potential pitfalls associated with OR complexes. In some cases, ORx alone is not functional without its co-receptor chaperone. Two types of expression vectors adapted to Xenopus oocyte expression are used. pSP64DV was used to record currents reaching over 1 μA from Orco exposed to VUAA1, indicating high protein levels (FIG. 4B). Considering the objective to extract Orco-rich membrane fragments less than <50 nm in length, receptor density should be sufficient to ensure that these short fragments contain Orco. To evaluate Orco density, this gene was expressed using the pCMV6-AC-mKate expression vectors (Origene), or other tagged version. This plasmid functions well in Xenopus oocytes and adds a constitutively fluorescent mKate2 tag on the C-terminus of the protein of interest (here Orco) that can be directly or indirectly (fluorescence immunohistochemistry) detected by confocal scanning laser microscopy. […]

[2] = test system: OR8 from Toxorhynchites amboinensis (TaOR8); assay: mosquito odorant receptor 8 activation by odorants (TaOR8); format: cell-based; details: FIG. 17A
Text: (§2) FIG. 17B-OR8 is an enantioselective octenol receptor, distinguishing between the (R)-enantiomer, which is the most abundant form in nature, and the(S)-enantiomer.
(§3) Indeed, any modifications of the double bond saturation, side chain length, chiral center position, or functional substitution of the (R)-1-octen-3-ol chemical structure is sufficient to prevent OR8 from being activated (FIG. 17B).

[3] = test system: OR8 from Aedes aegypti (AaOR8); assay: mosquito odorant receptor 8 activation by odorants (AaOR8); format: cell-based; details: FIG. 17A
Text: as §2, §3

[4] = test system: mosquito odorant receptors known as OR8; assay: mosquito odorant receptor OR8 activation and odorant tuning; format: cell-based; details: FIG. 17A
Text: as §3
These studies established OR8 as a sensitive enantioselective odorant receptor, whose narrow odorant tuning is optimal in the nanomolar range, which is excellent in the field of receptor pharmacology. […] OR8 is the epitome of receptor selectivity, being able to reject any slight modification on the (R)-1-octen-3-ol backbone manifesting in complete activation shutdown (FIG. 17B). At a low concentration the receptor is specific to (R)-1-octen-3-ol (FIG. 17C), which is a desirable property for the purpose of using this receptor to detect early signs of microbial contamination or presence.

[5] = test system: Toxorhynchites amboinensis OR8 (TaOR8); assay: Activation of mosquito odorant receptor OR8 from Toxorhynchites amboinensis (TaOR8), FIG. 17A; format: cell-based; details: molar concentration, read-out: T. amboinensis OR8 (TaOR8) EC50
Text: as §2
as §1, with “Considering the objective to extract Orco-rich membrane fragments less than <50 nm in length, receptor density should be sufficient to ensure that these short fragments contain Orco. To evaluate Orco density, this gene was expressed using the pCMV6-AC-mKate expression vectors (Origene), or other tagged version.” left out

[6] = biological target: T2, Aedes aegypti OR8 (AaOR8) (Aedes aegypti, UniProt Q16MN0); assay: Activation of mosquito odorant receptor OR8 from Aedes aegypti (AaOR8), FIG. 17A; format: cell-based; details: molar concentration, read-out: A. agypti OR8 EC50
T2 sequence (Q16MN0 1-422): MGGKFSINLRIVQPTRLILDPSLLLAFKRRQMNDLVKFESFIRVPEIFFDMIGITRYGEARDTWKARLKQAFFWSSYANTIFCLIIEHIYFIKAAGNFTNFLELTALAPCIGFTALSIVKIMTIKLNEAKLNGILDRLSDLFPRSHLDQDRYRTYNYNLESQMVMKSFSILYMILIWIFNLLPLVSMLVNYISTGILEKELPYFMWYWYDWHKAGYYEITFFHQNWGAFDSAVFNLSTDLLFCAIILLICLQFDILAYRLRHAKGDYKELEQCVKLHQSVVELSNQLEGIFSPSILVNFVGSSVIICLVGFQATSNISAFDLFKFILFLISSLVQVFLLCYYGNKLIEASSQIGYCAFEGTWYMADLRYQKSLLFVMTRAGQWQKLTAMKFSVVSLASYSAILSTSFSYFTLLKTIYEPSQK
T2 sequence (Q178U6 1-478 partner): T1 sequence (Q178U6 1-478)
Text: as §2
as §1, with “Considering the objective to extract Orco-rich membrane fragments less than <50 nm in length, receptor density should be sufficient to ensure that these short fragments contain Orco. To evaluate Orco density, this gene was expressed using the pCMV6-AC-mKate expression vectors (Origene), or other tagged version.” left out

OR9/OR10 = details: background, based on cell-based assays; cited from earlier work

OR2, sequence (Q8WTE6 whole entry, species assumed, the tested form may be a part): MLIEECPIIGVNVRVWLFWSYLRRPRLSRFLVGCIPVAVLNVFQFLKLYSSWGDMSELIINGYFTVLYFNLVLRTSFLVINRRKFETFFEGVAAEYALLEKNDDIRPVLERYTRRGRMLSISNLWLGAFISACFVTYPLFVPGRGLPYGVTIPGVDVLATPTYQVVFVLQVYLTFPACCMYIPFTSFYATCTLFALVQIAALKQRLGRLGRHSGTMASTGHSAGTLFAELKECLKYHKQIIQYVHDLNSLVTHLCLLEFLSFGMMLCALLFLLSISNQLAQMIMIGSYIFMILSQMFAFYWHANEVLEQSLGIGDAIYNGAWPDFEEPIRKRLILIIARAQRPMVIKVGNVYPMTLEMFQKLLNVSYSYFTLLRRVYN
OR2, sequence (Q7QCC7 whole entry partner, species assumed, the tested form may be a part): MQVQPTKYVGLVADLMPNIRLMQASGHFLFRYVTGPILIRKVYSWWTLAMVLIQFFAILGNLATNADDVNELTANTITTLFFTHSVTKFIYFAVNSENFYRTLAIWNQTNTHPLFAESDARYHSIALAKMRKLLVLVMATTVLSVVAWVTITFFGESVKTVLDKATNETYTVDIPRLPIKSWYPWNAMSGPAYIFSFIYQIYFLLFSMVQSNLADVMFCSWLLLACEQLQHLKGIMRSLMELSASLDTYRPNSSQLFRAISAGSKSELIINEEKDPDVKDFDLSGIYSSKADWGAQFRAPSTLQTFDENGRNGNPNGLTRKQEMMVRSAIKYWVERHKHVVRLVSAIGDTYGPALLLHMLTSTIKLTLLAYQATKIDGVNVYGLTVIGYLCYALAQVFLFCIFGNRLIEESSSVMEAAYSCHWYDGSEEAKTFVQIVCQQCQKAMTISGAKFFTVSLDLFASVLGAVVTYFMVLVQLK

Compound: c1ccc2[nH]ccc2c1 [indole]
solubility in water [1]: sparingly soluble
concentration range of selective response of OR2 (OR2): upper picomolar range

Compound: CCc1ccc(NC(=O)CSc2nnc(-c3cccnc3)n2CC)cc1 [VUAA1]
currents recorded from Orco exposed to VUAA1 (Aedes aegypti Orco; Xenopus oocytes, pSP64DV expression vector): over 1 μA

sensitivity of AaOR8 (activating concentration range) [3]: parts per billion range
concentration range at which OR8 is activated [4]: parts per billion range
Compound: C=C[C@H](O)CCCCC [(R)-1-octen-3-ol]
sensitivity of TaOR8 (activating concentration range) [2]: parts per billion range

Compound: Cc1ccc(C(C)C)cc1O [carvacrol]
effect on VUAA1-activated Orco (Aedes aegypti Orco): inhibit VUAA1-activated Orco

EC50 [6]: 213 nM
Compound: C=C[C@H](O)CCCCC [(R)-1-Octen-3-ol, (R)-1-octen-3-ol]
EC50 [5]: 401 nM

Compound: octadienal
effect on VUAA1-activated Orco (Aedes aegypti Orco): inhibit VUAA1-activated Orco

Compound: Cc1c[nH]c2ccccc12 [skatole]
concentration range of selective response of OR9/OR10 (OR9/OR10): upper picomolar range
solubility in water [1]: sparingly soluble
